In ChEMBL document CHEMBL5338739, “Discovery of Dual Lysine Methyltransferase G9a and EZH2 Inhibitors with In Vivo Efficacy against Malignant Rhabdoid Tumor” (J Med Chem, 2023):
Calls of active or inactive are those of the source. The rule behind the calls is not given here.

Columns and labels:
[1] = target: T1, Histone-lysine N-methyltransferase EZH2 (Homo sapiens, UniProt Q15910); assay: Inhibition of human EZH2 using SAM as substrate incubated for 1 hr by microplate luminescence based HMT assay
Target sequence in this assay (Q15910 whole entry): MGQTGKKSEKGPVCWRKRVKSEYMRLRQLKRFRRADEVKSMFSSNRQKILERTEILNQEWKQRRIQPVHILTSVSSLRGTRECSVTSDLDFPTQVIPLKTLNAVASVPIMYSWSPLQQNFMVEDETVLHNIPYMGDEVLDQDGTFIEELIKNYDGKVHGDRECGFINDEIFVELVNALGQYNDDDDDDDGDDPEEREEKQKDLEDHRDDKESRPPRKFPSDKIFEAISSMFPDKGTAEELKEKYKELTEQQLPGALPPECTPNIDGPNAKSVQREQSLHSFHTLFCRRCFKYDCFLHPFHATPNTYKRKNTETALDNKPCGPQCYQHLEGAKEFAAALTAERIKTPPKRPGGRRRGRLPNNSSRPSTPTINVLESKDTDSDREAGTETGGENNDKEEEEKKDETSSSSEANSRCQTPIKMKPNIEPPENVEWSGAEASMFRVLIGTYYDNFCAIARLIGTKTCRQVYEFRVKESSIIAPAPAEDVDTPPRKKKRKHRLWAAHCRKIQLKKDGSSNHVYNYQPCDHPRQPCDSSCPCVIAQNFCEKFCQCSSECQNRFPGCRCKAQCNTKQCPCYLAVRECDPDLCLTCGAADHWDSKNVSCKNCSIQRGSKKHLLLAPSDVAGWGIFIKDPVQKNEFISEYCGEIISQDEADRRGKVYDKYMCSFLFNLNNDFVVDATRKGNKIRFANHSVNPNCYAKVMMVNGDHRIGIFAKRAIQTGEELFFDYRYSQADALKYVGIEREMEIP

[2] = target: T2, N-lysine methyltransferase KMT5A (Homo sapiens) (UniProt Q9NQR1); assay: Inhibition of SETD8 (unknown origin) using SAM as substrate at 10 uM by time-resolved fluorescence assay relative to control
T2 sequence (whole entry): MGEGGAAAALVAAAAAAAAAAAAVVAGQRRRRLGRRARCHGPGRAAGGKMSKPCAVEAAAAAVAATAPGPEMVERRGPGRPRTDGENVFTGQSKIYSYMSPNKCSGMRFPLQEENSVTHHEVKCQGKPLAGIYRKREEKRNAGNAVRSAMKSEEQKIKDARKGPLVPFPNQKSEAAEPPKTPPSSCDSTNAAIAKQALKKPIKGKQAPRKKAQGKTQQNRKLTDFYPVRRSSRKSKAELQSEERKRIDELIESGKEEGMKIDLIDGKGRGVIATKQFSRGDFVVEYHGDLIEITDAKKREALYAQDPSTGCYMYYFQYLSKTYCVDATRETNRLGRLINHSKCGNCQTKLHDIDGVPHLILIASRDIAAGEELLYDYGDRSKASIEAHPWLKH

[3] = Tmax in Sprague-Dawley rat at 10 mg/kg, iv administered for 12 hrs by HPLC analysis; assay type: ADME, organism-based; details: in vivo
[4] = Cmax in Sprague-Dawley rat at 10 mg/kg, iv administered for 12 hrs by HPLC analysis; assay type: ADME, organism-based; set-up: dose 10 mg/kg, time 12 hrs, route iv; details: in vivo
[5] = Clearance in Sprague-Dawley rat at 10 mg/kg, iv administered for 12 hrs by HPLC analysis; assay type: ADME, organism-based; details: in vivo
[6] = Clearance in Sprague-Dawley rat at 30 mg/kg, po administered for 24 hrs by HPLC analysis; assay type: ADME, organism-based; details: in vivo
[7] = Apparent volume of distribution in Sprague-Dawley rat at 10 mg/kg, iv administered for 12 hrs by HPLC analysis; assay type: ADME, organism-based; details: in vivo, read-out: Vc
[8] = Apparent volume of distribution in Sprague-Dawley rat at 30 mg/kg, po administered for 24 hrs by HPLC analysis; assay type: ADME, organism-based; details: in vivo
[9] = AUC (0 to 24 hrs) in Sprague-Dawley rat at 10 mg/kg, iv administered for 12 hrs by HPLC analysis; assay type: ADME, organism-based; set-up: dose 10 mg/kg, time 12 hrs, route iv; details: in vivo
[10] = target: T1, Histone-lysine N-methyltransferase EZH2; assay: Binding affinity to EZH2 in human RD cells assessed as decrease in pronase E mediated EZH2 hydrolyzation incubated for 1 hr by DARTS analysis; assay type: cell-based; details: dose 5-20 µM
Target sequence in this assay (Q15910 whole entry, looked up): as the sequence (Q15910 whole entry) above

[11] = target: Histone-lysine N-methyltransferase, H3 lysine-79 specific (Homo sapiens) (UniProt Q8TEK3); assay: Binding affinity to DOT1L in human RD cells assessed as increase in protein thermal stability at 5 uM incubated for 4 hrs by CETSA based Western blot analysis; assay type: cell-based
Chain of Histone-lysine N-methyltransferase, H3 lysine-79 specific (Homo sapiens) (Q8TEK3 whole entry, looked up): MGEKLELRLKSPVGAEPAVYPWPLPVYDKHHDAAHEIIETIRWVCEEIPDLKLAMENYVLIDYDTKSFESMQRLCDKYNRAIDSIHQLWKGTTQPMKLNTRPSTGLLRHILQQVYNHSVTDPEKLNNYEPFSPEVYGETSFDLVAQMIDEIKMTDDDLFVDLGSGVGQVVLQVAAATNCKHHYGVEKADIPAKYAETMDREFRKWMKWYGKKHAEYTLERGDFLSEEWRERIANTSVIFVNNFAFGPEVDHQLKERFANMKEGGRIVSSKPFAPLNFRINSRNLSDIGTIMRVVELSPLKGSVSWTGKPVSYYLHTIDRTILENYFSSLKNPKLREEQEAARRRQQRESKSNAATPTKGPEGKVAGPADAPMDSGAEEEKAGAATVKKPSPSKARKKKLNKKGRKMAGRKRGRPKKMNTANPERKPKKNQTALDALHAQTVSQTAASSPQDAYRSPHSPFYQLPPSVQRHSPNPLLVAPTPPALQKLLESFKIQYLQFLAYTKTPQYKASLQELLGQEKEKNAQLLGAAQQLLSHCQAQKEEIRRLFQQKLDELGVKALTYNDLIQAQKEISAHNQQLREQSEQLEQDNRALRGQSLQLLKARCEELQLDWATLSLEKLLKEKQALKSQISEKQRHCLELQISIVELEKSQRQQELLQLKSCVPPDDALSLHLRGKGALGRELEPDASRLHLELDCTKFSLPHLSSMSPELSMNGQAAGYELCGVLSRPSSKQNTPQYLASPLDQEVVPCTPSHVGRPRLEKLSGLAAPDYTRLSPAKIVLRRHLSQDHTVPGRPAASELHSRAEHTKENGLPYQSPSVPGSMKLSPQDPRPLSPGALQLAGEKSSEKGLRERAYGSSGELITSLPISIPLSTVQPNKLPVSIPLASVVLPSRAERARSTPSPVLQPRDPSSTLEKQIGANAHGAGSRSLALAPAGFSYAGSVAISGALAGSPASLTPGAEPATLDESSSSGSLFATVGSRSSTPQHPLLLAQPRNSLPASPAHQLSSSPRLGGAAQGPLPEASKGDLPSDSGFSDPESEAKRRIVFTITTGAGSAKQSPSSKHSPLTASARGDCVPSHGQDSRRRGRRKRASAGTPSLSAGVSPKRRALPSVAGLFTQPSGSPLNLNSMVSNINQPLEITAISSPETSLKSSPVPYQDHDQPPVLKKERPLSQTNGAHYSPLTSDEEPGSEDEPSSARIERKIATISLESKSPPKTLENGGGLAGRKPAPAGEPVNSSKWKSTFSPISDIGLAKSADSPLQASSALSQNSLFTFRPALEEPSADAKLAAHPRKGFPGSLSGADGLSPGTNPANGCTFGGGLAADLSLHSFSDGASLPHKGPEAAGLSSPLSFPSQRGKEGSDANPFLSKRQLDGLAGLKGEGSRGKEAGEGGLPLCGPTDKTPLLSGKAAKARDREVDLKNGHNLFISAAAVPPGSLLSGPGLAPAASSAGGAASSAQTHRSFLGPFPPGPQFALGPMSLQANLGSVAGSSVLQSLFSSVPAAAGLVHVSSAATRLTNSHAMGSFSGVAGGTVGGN

[12] = test system: RD; assay: Antiproliferative activity against human RD cells assessed as reduction in clone formation rate at 5 uM for 1 to 2 weeks with fresh medium replacement for every 2 to 3 days by crystal violet staining based microscopic analysis; assay type: functional, cell-based; details: time 1-2 weeks
[13] = test system: SW982; assay: Antiproliferative activity against human SW982 cells assessed as reduction in clone formation rate at 5 uM for 1 to 2 weeks with fresh medium replacement for every 2 to 3 days by crystal violet staining based microscopic analysis; assay type: functional, cell-based; details: time 1-2 weeks
[14] = test system: Mus musculus; assay: Downregulation of H3K9me2 expression in tumor tissue of BALB/c nude mouse xenografted with human RD cells at 20 mg/kg, ip administered for 5 consecutive days followed by 2 rest days for 3 weeks by Western blotting analysis; assay type: functional, organism-based
[15] = Toxicity in BALB/c nude mouse xenografted with human RD cells assessed as effect on liver viscera index at 10 to 20 mg/kg, ip administered for 5 consecutive days followed by 2 rest days for 3 weeks; assay type: organism-based; details: in vivo, 504 h, dose 10-20 mg/kg
[16] = Toxicity in BALB/c nude mouse xenografted with human RD cells assessed as effect on lung viscera index at 10 to 20 mg/kg, ip administered for 5 consecutive days followed by 2 rest days for 3 weeks; assay type: organism-based; details: in vivo, 504 h, dose 10-20 mg/kg
[17] = Toxicity in BALB/c nude mouse xenografted with human RD cells assessed as effect on kidney viscera index at 10 to 20 mg/kg, ip administered for 5 consecutive days followed by 2 rest days for 3 weeks; assay type: organism-based; details: in vivo, 504 h, dose 10-20 mg/kg
[18] = test system: RD; assay: Antitumor activity against EZH2 and G9a knockdown human RD cells xenografted in BALB/c nude mouse assessed as tumor growth inhibition at 20 mg/kg, ip administered for 15 days; assay type: functional, organism-based; details: time 15.0 day
[19] = test system: RD; assay: Downregulation of H3K4me1 expression in human RD cells at 5 uM incubated for 6 days by immunoblotting analysis; assay type: functional, cell-based; details: time 6.0 day
[20] = test system: RD; assay: Downregulation of H3K79me1 expression in human RD cells at 5 uM incubated for 6 days by immunoblotting analysis; assay type: functional, cell-based; details: time 6.0 day
[21] = test system: RD; assay: Downregulation of H3K79me3 expression in human RD cells at 5 uM incubated for 6 days by immunoblotting analysis; assay type: functional, cell-based; details: time 6.0 day
[22] = test system: RD; assay: Downregulation of H3K36me2 expression in human RD cells at 5 uM incubated for 6 days by immunoblotting analysis; assay type: functional, cell-based; details: time 6.0 day

## COc1cc2c(NCc3c(C)cc(C)[nH]c3=O)nc(N3CCC(F)(F)CC3)nc2cc1OCCCN1CCCC1
[1]
  IC50: 4.35 nM
[2]
  inhibition: 11.2%
[3]
  Tmax: 10.2 min
[4]
  Cmax: 1380 ng/mL
[5]
  CL: 15.14 mL/min/kg
[6]
  CL/F: 59.7 mL/min/kg
[7]
  Vd: 4.54 L/kg
[8]
  Vc: 17.518 L/kg
[9]
  AUC(0-t) at 12 h: 1940 ng·h/mL
[10]
  Activity: Dose-Dependent Effect
[11]
  Activity: inactive
[12]
  Activity: Active
[13]
  Activity: Active
[14]
  Activity: Active
[15]
  Activity: Non-Toxic
[16]
  Activity: Non-Toxic
[17]
  Activity: Non-Toxic
[18]
  inhibition: inactive
[19]
  Activity: inactive
[20]
  Activity: inactive
[21]
  Activity: inactive
[22]
  Activity: inactive
